Measured values taken from US20050065041A1, “GELLED ACID” (SCHLUMBERGER TECHNOLOGY CORPORATION, priority 2003, published 2005).
Values after ≈ are worked out from the molar mass of the structure shown. Where two headings read alike, the source gives them in different places.

Columns and labels:
[1] = Bioaccumulation (Log Pow), OECD Method 117; assay type: physicochemical; conditions: component in aqueous composition of Table 2
Text: (§1) The bioaccumulation testing was done according to Organization of Economic Co-operation and Development, Paris, (OECD) Method 117. The biodegradation tests were done according to OECD 306. The toxicity tests were done according to the protocol required for application in the North Sea as recommended by OSPAR (the Oslo Paris Commission) for completion of HOCNF (Harmonized Offshore Chemical Notification Format) requirements. The methods are those in effect as of August, 2003, and the MSDS data and public health, safety and environment data given below are as of August, 2003.

Skeletonema Costatum = assay: OSPAR/HOCNF aquatic toxicity test, Skeletonema Costatum; assay type: in vivo
Text: as §1
(§2) However, in addition to the excellent toxicity results shown in Table 2, in further OSPAR tests, 2-butanoneoxime had NOEC (No Observable Effect Concentration) values of 8.9 mg/L for Acartia tonsa (48 hours), 1000 mg/L for Scophthalamus maximus juvenile (96 hours), and 99.7 mg/L for Skeletonema Costatum (72 hours), and the 15 day BOD was 6.5%.

[2] = OSPAR/HOCNF aquatic toxicity test, Acartia tonsa; assay type: in vivo; conditions: Acartia tonsa, in vivo; 48 hr; read-out: Acartia tonsa LC 50 48 hr
Text: as §1, §2

Acartia tonsa = assay: OSPAR/HOCNF aquatic toxicity test, Acartia tonsa; assay type: in vivo
Text: as §1, §2

[3] = test system: Scophthalamus maximus juvenile; assay: OSPAR/HOCNF aquatic toxicity test, Scophthalamus maximus juvenile; assay type: in vivo
Text: as §1, §2

[4] = Diversion test in limestone cores; conditions: 65.5° C., SDA fluid 5% HCl
Description: Diversion: Tests were completed with one-inch diameter and 4 inch length cores of Indiana Limestone. The initial permeability of each was determined with 3% NaCl brine in both the production and treatment directions prior to treatment with the gelled acid fluid. Then the gelled fluid was pumped at a constant pressure of about […] in the treatment direction. The time for acid break-through was also recorded. All tests were completed at 65.5° C. and constant pressure. Three cores were used to test for diversion in each case; two cores were about 18 to about 24 md and 1 core was about 45 to about 60 md. The initial and final permeabilities were determined. After the tests, all cores were CT scanned, cross sectional view, to visualize the wormholing.

[5] = Iron reduction performance: effect of pH and reagent concentration
[6] = Iron reduction as a function of HCl spending; conditions: reagent 2.00%
Description: Iron Reduction Performance: All solutions were prepared as indicated using about 0.5% by volume of a concentrate having about 40 weight percent FeCl3, and analyses were done with a HACH 2000 calorimeter, obtained from Hach Company, Loveland, Colo. Standard analyses were as described in the “Water Analyses Handbook,” Hach Company. Total iron was obtained by the FerroZine procedure by form ation of a purple complex observable at 562 nm. The ferrous iron content was determined by the phenanthroline complex procedure determined at 510 nm. An orange complex is formed which is proportional to the iron content. For each analysis, samples of the test solution were taken and diluted 1:100 with water and the appropriate, premeasured reagent pillows were added to the solution. Measurements were determined calorimetrically employing standards for the analyses. For ferrous content, analyses were made quickly to prevent oxidation due to air. Total iron required 5 minutes reaction time. If ferric content was needed, the content was obtained by difference.
The selected iron reducing agent should […] reduce the ferric iron in acid solutions. […] For each of these tests 2.0% of an approximately 10 to 12% aqueous solution or reducing agent or reducing agent precursor was evaluated. This represents approximately twice the concentration to adequately reduce the quantity of Fe^+3 present.

[7] = MSDS and public data as of August, 2003; cited from earlier work
[8] = HPLC Method OECD 117; cited from earlier work
[9] = OECD 306B, seawater; cited from earlier work
[10] = Biodegradation (BOD), OECD 306; conditions: 28 day
Text: as §1

Abra alba = assay: OSPAR/HOCNF toxicity test, Abra alba; assay type: in vivo; conditions: printed in the column headed Scophthalamus maximus juvenile EC 50 96 hr
Text: as §1

[11] = Acid spending tests with residue analysis at 121° C.; conditions: 6.89 MPa, six hours
Description: Acid spending tests were designed and implemented to analyze for residue for spending tests completed at 121° C. These tests were done with amounts chosen such that not all the limestone could be dissolved. […] Reducing agents and reducing agent precursors were evaluated and compared with hydrazinium hydrochloride. Indiana Limestone was crushed and approximately 25 grams of the limestone chips were placed in ajar that would fit a small autoclave. The gelled acid (2.25-ml of gelled acid solution per gram of chips) was added to the limestone chips, stirred to mix well, placed in the autoclave, pressurized to 6.89 mPa, heated to 121° C. and maintained for six hours. At the conclusion of the test, the autoclave was cooled and depressurized. The jar and contents were removed for examination and analysis.
The spent gelled acid was poured through a strainer to observe the fluid and to determine whether the gel was broken. The chips were also rinsed with deionized water to remove gel and residue from the chips, which were examined and then dried and the final weight determined. All residues were rinsed from the jar and chips, combined, and filtered through a pre-weighed Whatman 541 filter paper. The filter paper was dried to a stable weight to obtain the residue weight.

[12] = Core 2 (highest permeability core)
[13] = Test 1: DI water + 0.50% FeCl3 (pH 2.03), reagent concentration 0.50%
[14] = Test 1: DI water + 0.50% FeCl3 (pH 2.03), reagent concentration 1.00%
[15] = Test 1: DI water + 0.50% FeCl3 (pH 2.03), reagent concentration 1.25%
[16] = Test 2: 15% HCl + 0.50% of a 40% FeCl3 Aqueous Solution, reagent concentration 0.50%
[17] = Test 2: 15% HCl + 0.50% of a 40% FeCl3 Aqueous Solution, reagent concentration 1.00%
[18] = Test 2: 15% HCl + 0.50% of a 40% FeCl3 Aqueous Solution, reagent concentration 1.25%
[19] = Test 2: 15% HCl + 0.50% of a 40% FeCl3 Aqueous Solution, reagent concentration […]
[20] = Test 3: 50% water/CaCl2 + 10% 15% HCl + 0.50% FeCl3, reagent concentration 0.50%
[21] = Test 3: 50% water/CaCl2 + 10% 15% HCl + 0.50% FeCl3, reagent concentration 1.00%
[22] = Test 3: 50% water/CaCl2 + 10% 15% HCl + 0.50% FeCl3, reagent concentration 1.25%
[23] = Test 2: 90% Spent 15% HCl + 0.50% FeCl3
[24] = Test 3: 95% Spent 15% HCl + 0.50% FeCl3
[25] = Test 4: 99% Spent 15% HCl + 0.50% FeCl3
[26] = Test 5: 99.5% Spent 15% HCl + 0.50% FeCl3
[27] = Test 1: DI water + 0.50% FeCl3 (pH 2.03), reagent concentration 1.50%
[28] = Test 1: DI water + 0.50% FeCl3 (pH 2.03), reagent concentration 2.00%
[29] = Test 2: 15% HCl + 0.50% of a 40% FeCl3 Aqueous Solution, reagent concentration 1.50%
[30] = Test 2: 15% HCl + 0.50% of a 40% FeCl3 Aqueous Solution, reagent concentration 2.00%
[31] = Test 3: 50% water/CaCl2 + 10% 15% HCl + 0.50% FeCl3, reagent concentration 1.50%
[32] = Test 3: 50% water/CaCl2 + 10% 15% HCl + 0.50% FeCl3, reagent concentration 2.00%

Compound: CCC(C)=NO [2-Butanone oxime]
- chromatographic logP ([1]; octanol/water): 1.38
- NOEC (No Observable Effect Concentration) Skeletonema Costatum (Skeletonema Costatum; 72 hours): 99.7 mg/L
- EC50 (Skeletonema Costatum; Skeletonema costatum, 72 h, read-out: Skeletonema Costatum EC50 72 hr): 470 µg/mL (≈ 5.39 mM)
- LC50 at 48 h [2]: 6930 µg/mL (≈ 79.6 mM)
- NOEC (No Observable Effect Concentration) Acartia tonsa (Acartia tonsa; 48 hours): 8.9 mg/L
- EC50 ([3]; 96 h, read-out: Scophthalamus maximus juvenile EC 50 96 hr): > 3000 µg/mL
- NOEC (No Observable Effect Concentration) Scophthalamus maximus juvenile ([3]; 96 hours): 1000 mg/L
- Final Permeability ([4]; Core 1): 34.1 md
- Final Permeability [4, 12]: >5000 md
- Final Permeability ([4]; Core 3): 49.6 md

Compound: NNC(=O)NN [Carbohydrazide]
- EC50 (Skeletonema Costatum; Skeletonema costatum, 72 h; read-out: Skeletonema Costatum EC50 72 hr): 56.7 µg/mL (≈ 0.629 mM)
- Iron % reduced [5, 13]: 27.3%
- Iron Content Fe+2 [5, 13]: 390 mg/L
- Iron % reduced [5, 14]: 38.5%
- Iron Content Fe+2 [5, 14]: 550 mg/L
- Iron % reduced [5, 15]: 46.9%
- Iron Content Fe+2 [5, 15]: 670 mg/L
- Iron % reduced [5, 16]: 0.8%
- Iron Content Fe+2 [5, 16]: 10 mg/L
- Iron % reduced [5, 17]: 12.2%
- Iron Content Fe+2 [5, 17]: 160 mg/L
- Iron % reduced [5, 18]: 29.8%
- Iron Content Fe+2 [5, 18]: 390 mg/L
- Iron % reduced [5, 19]: 0.8%
- Iron Content Fe+2 [5, 19]: 10 mg/L
- Iron % reduced [5, 20]: 13%
- Iron Content Fe+2 [5, 20]: 160 mg/L
- Iron % reduced [5, 21]: 15%
- Iron Content Fe+2 [5, 21]: 190 mg/L
- Iron % reduced [5, 22]: 15%
- Iron Content Fe+2 [5, 22]: 190 mg/L
- Iron % reduced ([6]; Test 1: 15% HCl + 0.50% FeCl3): 1.8%
- Iron Content Fe+2 ([6]; Test 1: 15% HCl + 0.50% FeCl3): 20 mg/L
- Iron % reduced [6, 23]: 8.0%
- Iron Content Fe+2 [6, 23]: 90 mg/L
- Iron % reduced [6, 24]: 1.6%
- Iron Content Fe+2 [6, 24]: 20 mg/L
- Iron % reduced [6, 25]: 20.0%
- Iron Content Fe+2 [6, 25]: 160 mg/L
- Iron % reduced [6, 26]: 12.3%
- Iron Content Fe+2 [6, 26]: 90 mg/L
- hazard rating [7]: harmful and an irritant

Compound: CCN(O)CC [Diethylhydroxylamine, Diethylhydroxyl amine]
- Iron % reduced [5, 13]: 65.7%
- Iron Content Fe+2 [5, 13]: 670 mg/L
- Iron % reduced [5, 14]: 73.5%
- Iron Content Fe+2 [5, 14]: 750 mg/L
- Iron % reduced [5, 15]: 75.5%
- Iron Content Fe+2 [5, 15]: 770 mg/L
- Iron % reduced [5, 27]: 84.3%
- Iron Content Fe+2 [5, 27]: 860 mg/L
- Iron % reduced [5, 28]: 89.2%
- Iron Content Fe+2 [5, 28]: 910 mg/L
- Iron % reduced [5, 16]: 34.3%
- Iron Content Fe+2 [5, 16]: 350 mg/L
- Iron % reduced [5, 17]: 48.0%
- Iron Content Fe+2 [5, 17]: 490 mg/L
- Iron % reduced [5, 29]: 52.9%
- Iron Content Fe+2 [5, 29]: 540 mg/L
- Iron % reduced [5, 30]: 83.3%
- Iron Content Fe+2 [5, 30]: 850 mg/L
- Iron % reduced [5, 20]: 25%
- Iron Content Fe+2 [5, 20]: 310 mg/L
- Iron % reduced [5, 21]: 42%
- Iron Content Fe+2 [5, 21]: 520 mg/L
- Iron % reduced [5, 31]: 47%
- Iron Content Fe+2 [5, 31]: 590 mg/L
- Iron % reduced [5, 32]: 61%
- Iron Content Fe+2 [5, 32]: 760 mg/L
- Iron % reduced ([6]; Test 1: 15% HCl + 0.50% FeCl3): 54.4%
- Iron Content Fe+2 ([6]; Test 1: 15% HCl + 0.50% FeCl3): 620 mg/L
- Iron % reduced [6, 23]: 66.4%
- Iron Content Fe+2 [6, 23]: 750 mg/L
- Iron % reduced [6, 24]: 74.4%
- Iron Content Fe+2 [6, 24]: 930 mg/L
- Iron % reduced [6, 25]: 88.8%
- Iron Content Fe+2 [6, 25]: 710 mg/L
- Iron % reduced [6, 26]: 89.0%
- Iron Content Fe+2 [6, 26]: 650 mg/L
- bioaccumulation (Log Pow), literature value [8]: 0.43
- biodegradation [9]: less than 60%
- hazard rating [7]: harmful and an irritant

Compound: NN [Hydrazine]
- hazard rating [7]: toxic to aquatic species

Compound: Cl.NN [Hydrazinium hydrochloride]
- Bioaccumulation Log Pow [1]: <0
- Biodegradability BOD28 day [10]: 84%
- Skeletonema Costatum EC50 24 hr (Skeletonema Costatum; 24 hr): 0.38 µg/mL
- Acartia tonsa LC 50 48 hr (Acartia tonsa; 48 hr): 0.37 µg/mL
- Abra alba toxicity (Abra alba): 96 mg/L
- Residue Remaining [11]: 0.278 g
- Final Permeability ([4]; Core 1): 14.1 md
- Final Permeability [4, 12]: >5000 md
- Final Permeability ([4]; Core 3): 6.8 md
- hazard rating [7]: toxic by all routes
